Assay results reported in patent US12433896B2, “Deuterated analogs of etifoxine, their derivatives and uses thereof” (GABA Therapeutics Inc., priority 2015, dated 2025).
Counter-ions that a name gives are not always drawn. Each block holds one compound with its values, some of them ahead of it.

Tests used:
[1] = pharmacokinetics in male Sprague-Dawley rats after oral gavage; assay type: in vivo; settings: PO 50 mg/kg; for Cmax / AUC(0-t): rat, male Sprague-Dawley rats, plasma, average N=3, 70/30 Saline/PEG400; for AUC(0-t): read-out: AUC0-12
Protocol: Compounds were evaluated for pharmacokinetic profiles in male Sprague-Dawley rats at Shanghai Chempartner, Shanghai, China. Etifoxine hydrochloride and the hydrochloride salt of the compound described in example 1 were dosed to Sprague-Dawley rats via oral gavage (PO). Each compound was administered at a dose of 50 mg/kg to three rats (N=3 rats/compound; total 6 rats in the study). Each compound was formulated in 70/30 Saline/PEG400 at a concentration of 5 mg/mL (10 mL/kg injection volume/rat). Blood samples were collected from each rat at 10, 20, 30, 45 minutes and 1, 2,4 and 12 hours post-dose. Blood samples were put on ice and centrifugated to obtain plasma. Plasma samples were analyzed for concentrations of the dosed compound at each time point by LC-MS/MS using an AB-Sciex API-400 mass spectrometer. The lower limit of quantitation of each compound was 1 ng/mL. Pharmacokinetic parameters were determined by non-compartmental analysis using WinNonlin 6.2 software.

[2] = liver human microsomes stability study; assay type: in vitro ADME; settings: for half-life at 0.1 μM: human, liver microsomes
Protocol: (§1) Compounds were evaluated for liver microsome metabolic stability at Eurofins/Cerep (St. Charles, MO). […] Test compounds at a concentration of 0.1 μM were incubated for up to 60 minutes in duplicate. The microsomal protein concentration was 0.1 mg/mL. The parent compound was detected by HPLC-MS/MS analysis. The percent compound remaining was calculated by comparing the peak area of the parent compound at each time point to time zero. Half-life was estimated from the slope of the initial linear range of the logarithmic curve of parent compound remaining vs. time, assuming first order kinetics. The apparent intrinsic clearance was further calculated from the half-life value for assays with microsomes.

[3] = rat liver microsomes stability study; assay type: in vitro ADME; settings: for half-life at 0.1 μM: rat, liver microsomes
Protocol: as §1

[4] = cited from earlier work
[5] = human liver microsomes, 0.1 μM compound, 0.1 mg/mL microsomal protein, up to 60 minutes, read-out: Half-life (minutes) Experiment 1
[6] = 0.1 μM compound, 0.1 mg/mL microsomal protein, up to 60 minutes, read-out: Half-life (minutes) Experiment 2
[7] = rats, relative to etifoxine hydrochloride
[8] = same conditions, different lot of human liver microsomes, read-out: average half-life

Cmax [1]: 1140 ng/mL
AUC(0-t) [1]: 3380 ng·h/mL
Compound: CCNC1=Nc2ccc(Cl)cc2C(C)(c2ccccc2)O1 (stereo not drawn) [Etifoxine hydrochloride, 6-chloro-2-(ethylamino)-4-methyl-4-phenyl-4H-3,1-benzoxazine, reference compound]

half-life at 0.1 μM [2, 8]: 18 min
Compound: [2H]c1c([2H])c([2H])c(C2(C)OC(NCC)=Nc3ccc(Cl)cc32)c([2H])c1[2H] (stereo not drawn) [Example 6, 6-chloro-N-ethyl-4-methyl-4-(phenyl-d5)-4H-3,1-benzoxazin-2-amine]

half-life at 0.1 μM [2, 8]: 18 min
Compound: [2H]C([2H])([2H])C1(c2ccccc2)OC(NCC)=Nc2ccc(Cl)cc21 (stereo not drawn) [Example 7, 6-chloro-N-ethyl-4-(methyl-d3)-4-phenyl-4H-3,1-benzoxazin-2-amine]

The remaining lines, values behind:

Compound: CCNC1=Nc2ccc(Cl)cc2C(C)(c2ccccc2)O1 (stereo not drawn) [Etifoxine, 6-chloro-2-(ethylamino)-4-methyl-4-phenyl-4H-3,1-benzoxazine]
Half-life (minutes) Experiment 2 ([2]; human liver microsomes, 0.1 μM compound, 0.1 mg/mL microsomal protein, up to 60 minutes): 21.9 min
half-life at 0.1 μM [2, 5]: 23 min
Half-life (minutes) Experiment 1 ([3]; 0.1 μM compound, 0.1 mg/mL microsomal protein, up to 60 minutes): 7.7 min
half-life at 0.1 μM [3, 6]: 7.4 min
half-life in humans [4]: 240 to 360 min

Compound: [2H]C([2H])([2H])C([2H])([2H])NC1=Nc2ccc(Cl)cc2C(C)(c2ccccc2)O1 (stereo not drawn) [Example 1 hydrochloride, 6-chloro-N-(ethyl-d5)-4-methyl-4-phenyl-4H-3,1-benzoxazin-2-amine]
AUC0-12 greater than etifoxine hydrochloride [1, 7]: 2.5 times
Cmax greater than etifoxine hydrochloride [1, 7]: 1.7 times
Cmax [1]: 1930 ng/mL
AUC(0-t) [1]: 8340 ng·h/mL

Compound: [2H]C([2H])([2H])C([2H])([2H])NC1=Nc2ccc(Cl)cc2C(C)(c2ccccc2)O1 (stereo not drawn) [Example 1, 6-chloro-N-(ethyl-d5)-4-methyl-4-phenyl-4H-3,1-benzoxazin-2-amine]
half-life longer than that of etifoxine ([2]; human liver microsomes, relative to etifoxine): about 86%
half-life at 0.1 μM [2, 5]: 39.7 min
half-life at 0.1 μM ([2]; human liver microsomes, 0.1 μM compound, 0.1 mg/mL microsomal protein, up to 60 minutes, read-out: Half-life (minutes) Experiment 2): 41.8 min
half-life at 0.1 μM ([2]; human liver microsomes, average of experiments 1 and 2, read-out: Half-life (minutes) Average): 41 min
half-life at 0.1 μM ([3]; 0.1 μM compound, 0.1 mg/mL microsomal protein, up to 60 minutes, read-out: Half-life (minutes) Experiment 1): 13.8 min
half-life at 0.1 μM [3, 6]: 13.8 min
half-life at 0.1 μM ([3]; average of experiments 1 and 2, read-out: Half-life (minutes) Average): 14 min
half-life longer than that of etifoxine ([3]; relative to etifoxine): about 75%
